Experimental data published in the NIST ThermoML archive (doi:10.1016/j.tca.2010.01.023).
± gives the expanded uncertainty stated by the source.

Details: Crystal; DTA

CCCCn1cc[n+](C)c1.[Cl-] [1-butyl-3-methylimidazolium chloride]
Normal melting temperature: 65.0 ± 1 °C
